Data on 12 molecules can be found in ChEMBL document CHEMBL4420075, “Seriniquinones, melanoma-specific anticancer agents” (2016).

This assay concerns HCT-116. Briefly: Cytotoxicity in human HCT116 cells by MTT assay. Format: functional, cell-based.

As usually defined, the IC50 is the concentration that inhibits the measured activity by half. A lower IC50 goes with higher potency.

As to `O=C(Nc1ccc2c(=O)c3c(sc4c(=O)c5cc(NC(=O)C(F)(F)F)ccc5c(=O)c43)c(=O)c2c1)C(F)(F)F`, the midpoint of inhibition, the IC50, lay at 0.58 µM. The result for `O=c1c2ccccc2c(=O)c2c1sc1c(=O)c3cc(O)ccc3c(=O)c12` reads 1.3 µM; that for `CC(=O)Oc1ccc2c(=O)c3sc4c(=O)c5cc(O)ccc5c(=O)c4c3c(=O)c2c1`, 3.5 µM; that for `O=c1c2ccccc2c(=O)c2c1sc1c(=O)c3cc(Cl)ccc3c(=O)c12`, 0.15 µM. The result for `O=C(Nc1ccc2c(=O)c3sc4c(=O)c5ccc(NC(=O)C(F)(F)F)cc5c(=O)c4c3c(=O)c2c1)C(F)(F)F` reads 0.48 µM; that for `O=c1c2ccccc2c(=O)c2c1sc1c(=O)c3ccc(Cl)cc3c(=O)c12`, 0.28 µM; that for `O=c1c2ccc(O)cc2c(=O)c2c1sc1c(=O)c3ccc(O)cc3c(=O)c12`, 1.6 µM. The result for `CC(=O)Oc1ccc2c(=O)c3c(sc4c(=O)c5cc(O)ccc5c(=O)c43)c(=O)c2c1` reads 1.6 µM; that for `O=c1c2ccccc2c(=O)c2c1sc1c(=O)c3ccc(O)cc3c(=O)c12`, 1.2 µM; that for `O=c1c2cc(O)ccc2c(=O)c2c1sc1c(=O)c3cc(O)ccc3c(=O)c12`, 4.4 µM. `CC(=O)Oc1ccc2c(=O)c3c(sc4c(=O)c5ccc(O)cc5c(=O)c43)c(=O)c2c1` registered an IC50 of 1.8 µM.

Consider `CC(=O)Oc1ccc2c(=O)c3c(sc4c(=O)c5cc(OC(C)=O)ccc5c(=O)c43)c(=O)c2c1`, for which 5.8 µM corresponded to half-maximal inhibition (IC50).
